Data from patent publication US8299081B2, “Methods for treating drug resistant cancer” (Novartis AG, priority 2005, dated 2012).
≈ marks a conversion by molar mass, not a printed value. Where two headings read alike, the source gives them in different places.

Columns and labels:
[1] = system: melphalan-resistant L1210 murine leukemia cells; details: cited from earlier work
[2] = system: L1210 murine leukemia cells (parental line); details: cited from earlier work
MV4;11 tumors = experiment: Subcutaneous MV4;11 tumor xenograft model; type: in vivo, SCID-NOD mice
RS4;11 tumors = experiment: Subcutaneous RS4;11 tumor xenograft model; type: in vivo, SCID-NOD mice
MV4;11 cells = experiment: Intravenous bone marrow (BM) engraftment model MV4;11; type: in vivo, SCID-NOD mice
Protocol: For processing of bone marrow (BM) cells from the mouse MV4;11 engraftment model, femurs were purged with cold saline and red blood cells lysed with FACS lysis buffer (Becton Dickinson). Percent engraftment of human leukemic cells in mouse BM was determined by staining with anti-human HLA-A,B,C-FITC (vs. isotype-matched antibody-FITC control) (BD Pharmingen).
[…]. […] Mice were monitored daily and were euthanized when moribund or early signs of loss of hind limb motility. Increased life span (ILS) of treated mice was calculated as a percent increase in median survival time (MST) vs. vehicle treated control mice.
. In this model, MV4;11 cells disseminate to the bone marrow (BM), pathologically mimicking a disease pattern similar to human leukemia. […]. Histological analyses and flow cytometry were used to quantify the % engraftment of MV4;11 cells in BM (FIG. 21). In flow cytometric analyses, human MV4;11 cells were identified in mouse BM with an anti-human HLA-A,B,C antibody which binds to an epitope on human MHCl. In vehicle-treated mice, approximately 2-19% of total isolated BM cells consisted of engrafted MV4;11 cells (day 51, FIG. 21-a). This was also corroborated by immunohistochemistry with an antibody to human mitochondria which stains MV4;11 cells identifying the human cells in the mouse BM matrix (FIG. 21-b,c). […].

[3] = system: KM12L4A human colon tumor xenografts; experiment: KM12L4A human colon tumor xenografts; type: in vivo, nude mice; details: large established tumors 500 or 1000 mm^3, dosed daily
Text: These compounds have also shown oral activity in a variety of angiogenesis tumor and metastases animal models.

[4] = human, in vivo
Protocol: (§1) Phase I dose escalating multi-center open label studies were conducted to evaluate the safety, pharmacokinetics, and pharmacodynamics of Compound 1 in subjects with advanced solid malignancies. Further primary objectives of the studies included: 1) determining the Maximum Tolerated Dose (MTD); 2) identifying Dose Limiting Toxicity (DLT); and 3) assessing safety provil in subject with advanced solid tumors. Secondary objectives of the study included: 1) evaluating pharmacokinetics; 2) evaluating pharmacodynamics in plasma, peripheral blood lymphocytes, urine, and tumor cells; 3) recommending dose and schedule for future investigations; and 4) determining evidence of anti-tumor activity (RECIST). Details regarding this study are set forth below […]

[5] = system: advanced solid malignancies; experiment: Phase I dose escalating study: anti-tumor activity; type: in vivo, human
Protocol: as §1

[6] = parameters: species or system human; details: in vivo
Protocol: Phase I dose escalating multi-center open label studies were conducted to evaluate the safety, pharmacokinetics, and pharmacodynamics of Compound 1 in subjects with advanced solid malignancies. Further primary objectives of the studies included: 1) determining the Maximum Tolerated Dose (MTD); 2) identifying Dose Limiting Toxicity (DLT); and 3) assessing safety provil in subject with advanced solid tumors. Secondary objectives of the study included: 1) evaluating pharmacokinetics; 2) evaluating pharmacodynamics in plasma, peripheral blood lymphocytes, urine, and tumor cells; 3) recommending dose and schedule for future investigations; and 4) determining evidence of anti-tumor activity (RECIST). Details regarding this study are set forth below
[…]. Plasma exposure in the 100 mg dose group approaches the range where preclinical efficacy has been noted.

P-glycoprotein = P-glycoprotein (Homo sapiens, UniProt P08183); experiment: P-GP substrate status; type: in vitro ADME
Chain of P-glycoprotein (P08183 whole entry): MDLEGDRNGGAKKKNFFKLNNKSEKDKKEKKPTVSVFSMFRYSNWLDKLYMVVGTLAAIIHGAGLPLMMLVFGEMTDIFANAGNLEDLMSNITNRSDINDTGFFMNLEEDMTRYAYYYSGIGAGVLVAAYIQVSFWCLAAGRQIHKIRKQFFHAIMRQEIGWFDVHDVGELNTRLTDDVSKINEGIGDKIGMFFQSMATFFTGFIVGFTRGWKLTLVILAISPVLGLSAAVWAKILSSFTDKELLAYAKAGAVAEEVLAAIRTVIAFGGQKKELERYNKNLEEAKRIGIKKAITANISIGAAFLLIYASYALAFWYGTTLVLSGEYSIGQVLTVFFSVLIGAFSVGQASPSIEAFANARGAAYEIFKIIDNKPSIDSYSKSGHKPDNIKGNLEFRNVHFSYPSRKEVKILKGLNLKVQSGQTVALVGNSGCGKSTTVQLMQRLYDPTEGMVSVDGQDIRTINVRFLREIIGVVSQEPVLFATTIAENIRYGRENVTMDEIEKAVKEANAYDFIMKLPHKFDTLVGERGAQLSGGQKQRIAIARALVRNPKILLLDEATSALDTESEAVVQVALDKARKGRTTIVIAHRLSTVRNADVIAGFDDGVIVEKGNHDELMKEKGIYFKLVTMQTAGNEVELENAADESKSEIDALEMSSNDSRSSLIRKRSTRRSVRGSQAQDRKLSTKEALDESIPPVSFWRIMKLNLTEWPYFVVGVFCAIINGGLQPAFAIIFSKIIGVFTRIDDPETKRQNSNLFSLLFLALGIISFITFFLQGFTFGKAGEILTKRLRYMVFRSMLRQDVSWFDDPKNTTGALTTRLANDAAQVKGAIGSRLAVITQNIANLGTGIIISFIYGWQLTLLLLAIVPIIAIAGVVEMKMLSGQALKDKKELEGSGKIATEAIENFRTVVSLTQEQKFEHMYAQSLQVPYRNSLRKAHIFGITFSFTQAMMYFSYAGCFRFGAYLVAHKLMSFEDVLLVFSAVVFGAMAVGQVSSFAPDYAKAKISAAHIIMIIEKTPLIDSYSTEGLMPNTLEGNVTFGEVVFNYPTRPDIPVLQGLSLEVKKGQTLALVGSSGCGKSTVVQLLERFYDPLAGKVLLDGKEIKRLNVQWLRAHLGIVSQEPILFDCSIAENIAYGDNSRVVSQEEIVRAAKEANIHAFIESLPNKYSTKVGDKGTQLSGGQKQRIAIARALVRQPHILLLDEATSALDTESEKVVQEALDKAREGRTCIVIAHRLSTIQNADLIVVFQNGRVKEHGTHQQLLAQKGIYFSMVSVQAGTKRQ

pSTAT5 in MV4;11 tumors = experiment: Target modulation in vivo: pSTAT5 in MV4;11 tumors; details: Mus musculus
[7] = MV4;11, 30 mg/kg/d, dose-response study
[8] = large MV4;11 tumors 300, 500 or 1000 mm^3, 30 mg/kg/d, n=27

For `C=C(Br)C(=O)Nc1cc(C(=O)Nc2cc(C(=O)Nc3cc(C(=O)Nc4cc(C(=O)NCCNC(=N)N)n(C)c4)n(C)c3)n(C)c2)n(C)c1` [Brostallicin], the “higher activity in melphalan-resistant L1210 than in the parental line” value [1] is listed as 3 fold, the IC50 ([1]; melphalan-resistant L1210) is listed as 0.46 ng/mL (≈ 0.636 nM) and the IC50 [2] is listed as 1.45 ng/mL (≈ 2 nM).

With `CN1CCN(c2ccc3nc(-c4c(N)c5c(F)cccc5[nH]c4=O)[nH]c3c2)CC1` [Compound 1, 4-amino-5-fluoro-3-[6-(4-methyl-piperazin-1-yl)-1H-benzimidazol-2-yl]-1H-quinolin-2-one] the “tumor growth inhibition (TGI)” value (MV4;11 tumors; MV4;11, 1 mg/kg/d oral, after 2 weeks of dosing) was 23%, the “number of CR” value (MV4;11 tumors; MV4;11, 30 mg/kg daily, schedule study) was 1 and the TGI (MV4;11 tumors; MV4;11, 30 mg/kg, intermittent dosage regimens) was over 94%. The “complete responders (CR)” value (MV4;11 tumors; [7]) was 1, the “tumor responses (regression)” value (MV4;11 tumors; [7]) was 9110 and the “PRs durable for 40 days after cessation of dosing” value (MV4;11 tumors; MV4;11, after 50 days of 30 mg/kg/d) was “approximately 50%”. For the same molecule, the “doses giving significant tumor growth inhibition” value (MV4;11 tumors; MV4;11 tumors) was over 5 mg/kg/day, the “minimum statistically effective dose” value (MV4;11 tumors; MV4;11 tumors, p<0.01 vs. Vehicle) was 1 mg/kg/day and the complete responses (MV4;11 tumors; [8]) was 15%. For the same molecule, the “minor responses or remained stable” value (MV4;11 tumors; [8]) was 15%, the partial responses (MV4;11 tumors; [8]) was 70% and the “time until tumor regressions were evident” value (MV4;11 tumors; large MV4;11 tumors, 30 mg/kg/d) was 3 to 5 days. For the same molecule, the “number of CR, second cycle” value (MV4;11 tumors; ten re-grown MV4;11 tumors re-treated with 30 mg/kg/d for 60 days) was 2, the TGI (RS4;11 tumors; 100 mg/kg/d, day 8) was 48% and the minimum effective dose (RS4;11 tumors; day 8, p<0.01) was 100 mg/kg/day. The MST (MV4;11 cells; 20 mg/kg cyclic, 7 days on/7 days off, 5 cycles) was 118 days, the “MV4;11 cells in BM (leukemic burden)” value (MV4;11 cells; 20 mg/kg daily over 25 days, flow cytometry) was under 1% and the “increased life span (ILS)” value (MV4;11 cells; 20 mg/kg daily, vs vehicle) was 163%. For the same molecule, the “treated animals with regression and/or disease stabilization” value [3] was 90-100%, the “Anorexia, drug-related clinical adverse events ≥G2” value [4] was 2 and the “Hypertension (DLT), drug-related clinical adverse events ≥G2” value [4] was 2 (1 G3). For the same molecule, the “patients with stable disease (SD) at their first evaluation” value ([5]; 7/22 patients) was 32%, the “patients with SD for greater than 4 months” value ([5]; in vivo) was 4 patients and the “plasma exposure (Cmax, AUC) versus dose” value [6] was “increases proportionally with dose”. The P-GP substrate (P-glycoprotein) was “not a P-GP substrate”, the inhibition at 10 mg/kg (pSTAT5 in MV4;11 tumors; MV4-11, read-out: inhibition of STAT5 phosphorylation in tumors, 10 mg/kg/d x 5 days, 8 hour post dose (maximum)) was 90% and the inhibition at 10 mg/kg (pSTAT5 in MV4;11 tumors; MV4-11, read-out: inhibition of STAT5 phosphorylation in tumors, 10 mg/kg/d x 5 days, 24 hours) was 85%. It also gave an inhibition at 10 mg/kg (pSTAT5 in MV4;11 tumors; MV4-11, read-out: inhibition of p-STAT5 in tumors, 10 mg/kg/d x 5 days, 48 hours post dose) of 60%.
